Measurements published in article PMC8728392, “Synthesis, Anticancer Assessment, and Molecular Docking of Novel Chalcone-Thienopyrimidine Derivatives in HepG2 and MCF-7 Cell Lines” (Oxidative Medicine and Cellular Longevity, 2021).
One block for each compound: values may come before it.

Experiments:
[1] = tested on: human liver cancer cell line (HepG2); experiment: MTT assay, cytotoxicity; type: cell-based; conditions: HepG2; for survival percentage (mean ± SEM): 24 hours
Method: (§1) Cancer cell lines were manipulated according to the method described by Sigounas et al.. In this method, the cell lines were grown as adherent monolayers in T75 flasks with Dulbecco's modified Eagle's medium (DMEM) supplemented with 10% Fetal Bovine Serum (FBS), 2 mM L-glutamine, and 1% streptomycin/penicillin. The cells were left to grow in a CO2 incubator at 37°C, 5% CO2, and 95% humidity until their confluence.
(§2) The 3-[4,5-dimethylthiazol-2-yl]-2,5-diphenyltetrazolium bromide (MTT) colorimetric assay was used to examine the sensitivity of cells to tested compounds (as anticancer drugs), as previously described. This assay depends on the production of a purple formazan derivative from the yellow tetrazolium bromide (MTT) by mitochondrial succinate dehydrogenase in viable cells. The percentage of cell survival was calculated as follows: (1) Percentage of survival=O.D.treated cells/O.D.control cells×100.
(§3) For preliminary screening of the cytotoxicity of synthesized compounds 3a-g, cells exposed to DMSO were used as a control. Plotting the relationship between the survival score and the compound concentration and calculating the IC50 (the concentration required to inhibit cell viability by 50%) were performed for each test compound according to Li et al. in comparison with the reference standard anticancer agent, 5-FU.
(§4) The 3-[4,5-dimethylthiazol-2-yl]-2,5-diphenyltetrazolium bromide (MTT) colorimetric assay was used to examine the sensitivity of cells to tested compounds (as anticancer drugs), as previously described by Hussein et al. (2017). This assay depend on the production of a purple formazan derivative from the yellow tetrazolium bromide (MTT) by mitochondrial succinate dehydrogenase in viable cells. Briefly, after harvesting the cells with 0.25% trypsin, the cell lines were suspended in DMEM. Cells were seeded in 96-well microtiter plates at a concentration of 5×10^4 cell/well in a fresh medium and left to attach to the plates for 24 h before treatment with the tested compounds 3a-g. Test compounds were dissolved in dimethyl sulfoxide (DMSO). After 24 hours, cells were incubated with the appropriate concentration ranges of compounds, the wells were diluted to […] with fresh medium and incubation was continued for 24 hours. Three wells were used for each concentration. After 24 hours of treatment, 20 μl of MTT solution (5mg/ml) was added and subsequently the plates were further incubated for 4 hours to allow the viable cells to biotransform the yellow-colored MTT into purple formazan crystals. The optical density (O.D.) of each well was measured spectrophotometrically at […] with an enzyme-linked immunosorbent assay (ELISA) microplate reader (BioTek, EL-800, USA). The percentage of cell survival was calculated as follows: […]

[2] = tested on: human breast cancer cell line (MCF-7); experiment: MTT assay, cytotoxicity; type: cell-based; conditions: MCF-7; for survival percentage (mean ± SEM): 24 hours
Method: as §1, §2, §3, §4

HepG2 cell line = experiment: Cell cycle analysis (PI, flow cytometry); type: cell-based, human
Method: Cell cycle analysis was performed to decide if the newly synthesized thienopyrimidine derivatives arrested the cell cycle and at what phase of the cell cycle, the HepG2 and MCF-7 cell lines were arrested. The experiments were performed as previously described by Tolba et al.. HepG2 and MCF-7 cell lines were seeded and incubated with the tested compounds in 6-well plates. After incubation overnight, the cells were washed twice with ice-cold phosphate-buffered saline (PBS), detached by EDTA-trypsinization from the plates, harvested by centrifugation, fixed in ice-cold 70% (v/v) ethanol, and washed with phosphate-buffered saline (PBS, pH 7.2 ± 0.2). The cells were resuspended with 0.1 mg/ml RNase, stained with […] propidium iodide (PI), and analyzed by flow cytometry using a FACSCalibur flow cytometer (BD Biosciences, San Jose, CA). CellQuest software (Becton Dickinson) was used to determine the cell cycle distributions after incubation with 5-FU or tested compounds. Exposure of HepG2 and MCF-7 cell lines to these compounds could interfere with the normal cell cycle distribution.

melting point: 178 to 179 °C
SMILES: CCOCc1nc2sc3c(c2c(=O)n1CC(=O)Nc1ccc(C(=O)/C=C\c2cccc([N+](=O)[O-])c2)cc1)CCN(C(=O)OCC)C3 [Compound 3f, Ethyl (Z)-2-(Ethoxymethyl)-3-(2-((4-(3-(3-nitrophenyl)acryloyl)phenyl)amino)-2-oxoethyl)-4-oxo-3,5,6,8-tetrahydropyrido[4′,3′:4,5]thieno[2,3-d]pyrimidine-7(4H)-carboxylate]
cytotoxic activity (in words) [1]: lowest cytotoxic activity
survival percentage (mean ± SEM) ([1]; 4.8828125 μg/ml): 149.7 ± 0.200%
survival percentage (mean ± SEM) ([1]; 9.765625 μg/ml): 149.1 ± 0.106%
survival percentage (mean ± SEM) ([1]; 19.53125 μg/ml): 144.7 ± 0.140%
survival percentage (mean ± SEM) ([1]; 39.0625 μg/ml): 119.1 ± 0.122%
survival percentage (mean ± SEM) ([1]; 78.125 μg/ml): 115.9 ± 0.157%
survival percentage (mean ± SEM) ([1]; 156.25 μg/ml): 112.0 ± 0.460%
survival percentage (mean ± SEM) ([1]; 312.5 μg/ml): 77.8 ± 0.071%
survival percentage (mean ± SEM) ([1]; 625 μg/ml): 15.3 ± 0.005%
survival percentage (mean ± SEM) ([1]; 1250 μg/ml): 12.6 ± 0.019%
survival percentage (mean ± SEM) ([1]; 2500 μg/ml): 11.7 ± 0.009%
survival percentage (mean ± SEM) ([1]; 5000 μg/ml): 11.6 ± 0.002%
survival percentage (mean ± SEM) ([1]; 10000 μg/ml): 10.7 ± 0.004%
cytotoxic activity (in words) [2]: lowest cytotoxic activity
survival percentage (mean ± SEM) ([2]; 4.8828125 μg/ml): 149.7 ± 0.082%
survival percentage (mean ± SEM) ([2]; 9.765625 μg/ml): 132.2 ± 0.214%
survival percentage (mean ± SEM) ([2]; 19.53125 μg/ml): 127.7 ± 0.180%
survival percentage (mean ± SEM) ([2]; 39.0625 μg/ml): 122.6 ± 0.121%
survival percentage (mean ± SEM) ([2]; 78.125 μg/ml): 120.2 ± 0.150%
survival percentage (mean ± SEM) ([2]; 156.25 μg/ml): 119.7 ± 0.182%
survival percentage (mean ± SEM) ([2]; 312.5 μg/ml): 92.0 ± 0.141%
survival percentage (mean ± SEM) ([2]; 625 μg/ml): 67.1 ± 0.086%
survival percentage (mean ± SEM) ([2]; 1250 μg/ml): 47.5 ± 0.181%
survival percentage (mean ± SEM) ([2]; 2500 μg/ml): 6.2 ± 0.004%
survival percentage (mean ± SEM) ([2]; 5000 μg/ml): 5.1 ± 0.003%
survival percentage (mean ± SEM) ([2]; 10000 μg/ml): 4.6 ± 0.002%

melting point: 189 to 190 °C
SMILES: CCOC(=O)Cn1c(SCC(=O)Nc2ccc(C(=O)/C=C\c3cccc([N+](=O)[O-])c3)cc2)nc2sc3c(c2c1=O)CCN(C(=O)OCC)C3 [Compound 3c, Ethyl (Z)-3-(2-Ethoxy-2-oxoethyl)-2-((2-((4-(3-(3-nitrophenyl)acryloyl)phenyl)amino)-2-oxoethyl)thio)-4-oxo-3,5,6,8-tetrahydropyrido[4′,3′:4,5]thieno[2,3-d]pyrimidine-7(4H)-carboxylate]
G1 phase cell population (HepG2 cell line): significant increase
%DIP G1 (HepG2 cell line; flow cytometry panel): 55.32%
survival percentage (mean ± SEM) ([1]; 4.8828125 μg/ml): 91.5 ± 0.013%
survival percentage (mean ± SEM) ([1]; 9.765625 μg/ml): 81.6 ± 0.027%
survival percentage (mean ± SEM) ([1]; 19.53125 μg/ml): 69.8 ± 0.027%
survival percentage (mean ± SEM) ([1]; 39.0625 μg/ml): 63.0 ± 0.030%
survival percentage (mean ± SEM) ([1]; 78.125 μg/ml): 62.4 ± 0.051%
survival percentage (mean ± SEM) ([1]; 156.25 μg/ml): 22.1 ± 0.011%
survival percentage (mean ± SEM) ([1]; 312.5 μg/ml): 21.1 ± 0.004%
survival percentage (mean ± SEM) ([1]; 625 μg/ml): 20.6 ± 0.003%
survival percentage (mean ± SEM) ([1]; 1250 μg/ml): 20.1 ± 0.004%
survival percentage (mean ± SEM) ([1]; 2500 μg/ml): 19.0 ± 0.002%
survival percentage (mean ± SEM) ([1]; 5000 μg/ml): 18.8 ± 0.001%
survival percentage (mean ± SEM) ([1]; 10000 μg/ml): 18.0 ± 0.001%
survival percentage (mean ± SEM) ([2]; 4.8828125 μg/ml): 149.3 ± 0.082%
survival percentage (mean ± SEM) ([2]; 9.765625 μg/ml): 135.4 ± 0.066%
survival percentage (mean ± SEM) ([2]; 19.53125 μg/ml): 140.3 ± 0.197%
survival percentage (mean ± SEM) ([2]; 39.0625 μg/ml): 132.0 ± 0.136%
survival percentage (mean ± SEM) ([2]; 78.125 μg/ml): 121.5 ± 0.183%
survival percentage (mean ± SEM) ([2]; 156.25 μg/ml): 110.9 ± 0.063%
survival percentage (mean ± SEM) ([2]; 312.5 μg/ml): 71.1 ± 0.156%
survival percentage (mean ± SEM) ([2]; 625 μg/ml): 11.3 ± 0.026%
survival percentage (mean ± SEM) ([2]; 1250 μg/ml): 7.4 ± 0.003%
survival percentage (mean ± SEM) ([2]; 2500 μg/ml): 6.4 ± 0.003%
survival percentage (mean ± SEM) ([2]; 5000 μg/ml): 6.4 ± 0.007%
survival percentage (mean ± SEM) ([2]; 10000 μg/ml): 5.9 ± 0.002%
